Data as given in EP4740942A1, “AROMATIC AMIDE DERIVATIVE AND USE THEREOF” (HUAJIAN FUTURE (CHENGDU) TECHNOLOGY CO., LTD., priority 2023, dated 2025).

What was measured:
[1] = system: colorectal cancer cells SW480; test: Pharmacodynamic experiment of subcutaneous xenograft tumor model of colorectal cancer cells SW480; format: in vivo, BALB/c nude mice; conditions: 0.2 mg/kg, QD × 18 days, oral gavage
Protocol: Animal species and number: BALB/c nude mice, 6 mice in each group.
Experimental samples: compound 4-1 and compound Ref A-1.
Experimental groups: blank solvent control group, compound 4-1 (0.2 mg/kg, QD × 18 days) and compound Ref A-1 (0.2 mg/kg, QD × 18 days).
Establishment of animal model: SW480 tumor cells in logarithmic growth period were cultured and collected in vitro, and inoculated subcutaneously in right backs of the Balb/c Nude mice, and when tumors grew to about 180-250 mm^3, the tumor-bearing mice were randomly divided into groups. Subsequently, each group of animals were administered with drugs, and the first day of drug administration was defined as the 1st day of the experiment.
Drug administration route and frequency: oral gavage, once per day, for 18 consecutive days.
General state observation: the mice were observed once per day, and observation contents included, but were not limited to, locally administered parts, physical signs, general behaviors, mental states, death and other situations, and other abnormal manifestations of the animals.
Tumor volume calculation: V = 0.5 a × b^2, wherein a was a long diameter of tumor and b was a short diameter of tumor. Tumor growth inhibition rates TGI (%) were used to evaluate anti-tumor effects of the compounds. […]

lung cancer cells A427 = test: 3D model proliferation inhibitory activity test against lung cancer cells A427 (CellTiter-3D-Glo); format: cell-based; conditions: Homo sapiens, A-427, low-adhesion 96-well U-bottom plate
Protocol: (§1) Cell proliferation activity was detected by a CellTiter-3D-Glo reagent method. A specific method was as follows: A427 cells in logarithmic growth period were digested, diluted to a suitable cell density with MEM complete medium containing 10% FBS and 1% PS, inoculated into a low-adhesion 96-well U-bottom plate, and cultured in 5% CO2; and then a series of to-be-tested compounds with concentration gradient was added, and incubated in a 5% CO2 incubator. After finishing the incubation, the cells were lysed and detected by using the CellTiter-3D-Glo reagent. Chemiluminescence values were measured by a microplate reader, and data were fitted by Graphpad Prism software, so as to calculate IC50 values of tested substances.

[2] = system: pancreatic cancer cells MIA PaCa-2; test: Pharmacodynamic experiment of subcutaneous xenograft tumor model of pancreatic cancer cells MIA PaCa-2; format: in vivo, BALB/c nude mice; conditions: 0.2 mg/kg, QD × 15 days, oral gavage; for diets, weights and activities of the animals during the drug administration / Tumor inhibition rate: BALB/c nude mice; for Tumor inhibition rate: MIA PaCa-2 subcutaneous xenograft; for inhibitory effects on the growth of subcutaneously transplanted tumors of pancreatic cancer MIA PaCa-2 cells in the nude mice: result in words
[3] = In-vivo pharmacokinetic study in SD rats; conditions: 0.2 mg/kg
Protocol: Pharmacokinetic study on compound 4-1 in SD rats was conducted. 12 SD rats (half male and half female) were selected and randomly divided into 2 groups (3 rats/sex/group) according to their body weights, and the groups were recorded as a group 1 and a group 2, which were administered with 0.2 mg/kg compound 4-1 by intravenous and oral gavage route respectively. All the experimental animals were administered with a single dose on Day 0, and a drug administration moment was recorded as 0 hour. About 0.25 mL of whole blood (EDTA-K2) was respectively collected from all the experimental animals in group 1 before the drug administration, at 5 minutes, 15 minutes, 30 minutes, 1 hour, 2 hours, 4 hours, 6 hours, 8 hours and 24 hours after finishing the drug administration to prepare plasma; and about 0.25 mL of whole blood (EDTA-K2) was respectively collected from all the experimental animals in group 2 before the drug administration, at 15 minutes, 30 minutes, 1 hour, 2 hours, 4 hours, 6 hours, 8 hours and 24 hours after finishing the drug administration to prepare plasma. The compounds in the plasma samples were quantitatively determined by a LC-MS/MS method, and pharmacokinetic parameters were analyzed and calculated by non-compartmental analysis.

[4] = system: colorectal cancer cells SW480; test: 3D model proliferation inhibitory activity test against colorectal cancer cells SW480 (CellTiter-3D-Glo); format: cell-based; conditions: Homo sapiens, low-adhesion 96-well U-bottom plate
Protocol: as §1, with “SW480” for “A427”, “DMEM” for “MEM”

[5] = system: colorectal cancer cells HCT116; test: Proliferation inhibitory activity test against colorectal cancer cells HCT116 (CellTiter-3D-Glo); format: cell-based; conditions: Homo sapiens, HCT-116, low-adhesion 96-well U-bottom plate
Protocol: Cell proliferation activity was detected by a CellTiter-3D-Glo reagent method. A testing process was as follows: HCT116 cells in logarithmic growth period were digested, diluted to a suitable cell density with McCoy's 5A complete medium containing 10% FBS and 1% PS, inoculated into a low-adhesion 96-well U-bottom plate, and cultured in 5% CO2; and then a series of to-be-tested compounds with concentration gradient was added, and the system was incubated in a 5% CO2 incubator. After finishing the incubation, the cells were lysed and detected by using the CellTiter-3D-Glo reagent. Chemiluminescence values were measured by a microplate reader, and data were fitted by Graphpad Prism software, so as to calculate IC50 values of tested substances. Test results can be seen in the following table: wherein, "A" represents inhibitory activity IC50 < 20 nM, "B" represents inhibitory activity 20 nM ≤ IC50 < 50 nM, and "C" represents inhibitory activity IC50 ≥ 50 nM.

Row | SMILES | IC50 (lung cancer cells A427) | IC50 [4] | IC50 [5] | further results
1 | C=CCNC(=O)c1cc(Cc2ccnc(NS(=O)(=O)NC)c2F)c(F)c(F)c1Nc1ccc(I)cc1F [Compound 4-1, N-allyl-3,4-difluoro-5-((3-fluoro-2-((N-methylaminosulfonyl)amino)pyridin-4-yl)methyl)-2-((2-fluoro-4-iodophenyl)amino)benzamide] | 1.16 nM | 0.89 nM | < 20 nM | Tumor inhibition rate ([1]; SW480 subcutaneous xenograft, BALB/c nude mice): ++++ (tumor inhibition rate > 100%); inhibitory effect on the growth of subcutaneously transplanted tumors of colorectal cancer SW480 cells in the nude mice ([1]; result in words): significant inhibitory effect; diets, weights and activities of the animals during the drug administration [2]: normal; Tumor inhibition rate [2]: +++ (tumor inhibition rate > 90%); inhibitory effects on the growth of subcutaneously transplanted tumors of pancreatic cancer MIA PaCa-2 cells in the nude mice [2]: significant inhibitory effects; bioavailability ([3]; both sexes, rat, plasma, single dose, intravenous and oral gavage, read-out: absolute bioavailability (F%)): > 65%; absorption and clearance rates ([3]; result in words): greater
2 | [2H]C([2H])(C=C)NC(=O)c1cc(Cc2ccnc(NS(=O)(=O)NC)c2F)c(F)c(F)c1Nc1ccc(I)cc1F [Compound 4-7, N-(allyl-1,1-d2) -3,4-difluoro-5-((3-fluoro-2-((N-methylaminosulfonyl)amino)pyridin-4-yl)methyl)-2-((2-fluoro-4-iodophenyl)amino)benzamide] | 1.09 nM |  |  | 
3 | C=CCNC(=O)c1cc(Cc2ccnc(NS(=O)(=O)NCC)c2F)c(F)c(F)c1Nc1ccc(I)cc1F [Compound 4-8, N-allyl-5-((2-((N-ethylaminosulfonyl)amino)-3-fluoropyridin-4-yl)methyl)-3,4-difluoro-2-((2-fluor o-4-iodophenyl)amino)benzamide] | 2.88 nM |  | < 20 nM | 
4 | C=CCNC(=O)c1cc(Cc2ccnc(NS(=O)(=O)NC)c2F)c(F)c(F)c1Nc1ccc(C=C)cc1F [Compound 4-14, N-allyl-3,4-difluoro-5-((3-fluoro-2-((N-methylaminosulfonyl)amino)pyridin-4-yl)methyl)-2-((2-fluoro-4-vinylphenyl)amino)benzamide] |  | 2.67 nM | < 20 nM | 
5 | [2H]C([2H])([2H])NS(=O)(=O)Nc1nccc(Cc2cc(C(=O)NCC=C)c(Nc3ccc(I)cc3F)c(F)c2F)c1F [Compound 4-10, N-allyl-3,4-difluoro-5-((3-fluoro-2-((N-methyl-d3-aminosulfonyl)amino)pyridin-4-yl)methyl)-2-((2-fluoro-4-iodophenyl)amino)benzamide] | 0.89 nM | 1.05 nM | < 20 nM | 
6 | C=C[C@@H](C)NC(=O)c1cc(Cc2ccnc(NS(=O)(=O)NC)c2F)c(F)c(F)c1Nc1ccc(I)cc1F [Compound 4-5, (R)-N-(but-3-en-2-yl)-3,4-difluoro-5-((3-fluoro-2-((N-methylaminosulfonyl)amino)pyridin-4-yl)methyl)-2-((2-fluoro-4-iodophenyl)amino)benzamide] | 2.13 nM |  | < 20 nM | 
7 | C=CCCONC(=O)c1cc(Cc2ccnc(NS(=O)(=O)NC)c2F)c(F)c(F)c1Nc1ccc(I)cc1F [Compound 5-2, N-(but-3-en-1-yloxy)-3,4-difluoro-5-((3-fluoro-2-((N-methylaminosulfonyl)amino)pyridin-4-yl)methyl)-2-((2-fluoro-4-iodophenyl)amino)benzamide] |  | 0.63 nM |  | 
8 | C=CCONC(=O)c1cc(Cc2ccnc(NS(=O)(=O)NC)c2F)c(F)c(F)c1Nc1ccc(I)cc1F [Compound 5-1, N-(allyloxy)-3,4-difluoro-5-((3-fluoro-2-((N-methylaminosulfonyl)amino)pyridin-4-yl)methyl)-2-((2-fluoro-4-iodophenyl)amino)benzamide] | 0.53 nM | 0.17 nM |  | diets, weights and activities of the animals during the drug administration [2]: normal; Tumor inhibition rate [2]: +++ (tumor inhibition rate > 90%); inhibitory effects on the growth of subcutaneously transplanted tumors of pancreatic cancer MIA PaCa-2 cells in the nude mice [2]: significant inhibitory effects
